Laboratory results from US6603023B2 (priority 1996, dated 2003).
Like-named read-outs stand apart in the source and are kept apart here. Marks after values point to notes of the source that are not given here.

Tests used:
[1] = system: human neuroblastoma SK-N-As; experiment: SRB cytotoxicity, SK-N-As; format: cell-based; details: Table 1C; SRB, 72 h; read-out: IC50
How it was run: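 Monolayer cultures grown in RPMI 1640-10% FBS at 37 °C, 5% CO2, with resistant sublines kept under their selecting agent. Cytotoxicity determined by SRB protein staining (TCA fixation, absorbance 570 nm) in duplicate at six to seven drug concentrations. ED50 obtained by median-effect plot analysis.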

DC-3F/ADX = experiment: cells; format: cell-based, hamster
How it was run: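 Hamster lung fibroblast DC-3F sublines selected with actinomycin D (ADII moderate, ADX very strong MDR), maintained under selecting agent in RPMI 1640-10% FBS at 37° C. Monolayers exposed to six to seven drug concentrations in duplicate, TCA-fixed, stained with 0.4% SRB; absorbance 570 nm, analyzed by median-effect plot.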

murine leukemic P388/0 = experiment: XTT cytotoxicity, P388/0; format: cell-based; details: Table 1C; XTT, 72 h; read-out: IC50
How it was run: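 Leukemia cells (CCRF-CEM, P388/0 and drug-resistant sublines kept under selecting agent) grew in RPMI-1640 with 10% FBS at 37 °C, 5% CO2, seeded at 5×10^4 cells/mL. After 72 h drug exposure, viability was read by XTT with 0.025 mM PMS-XTT, 4 h at 37 °C, absorbance 450/630 nm.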

[2] = system: human mammary carcinoma MX-1 xenograft; details: for Average Body Weight, Day 7: initial weight, first treatment day
Protocol: DMSO was used as a vehicle for epothilones. Each mouse received ≦40 μL DMSO in all experiments.
Athymic nude mice (nu/nu) were used for MX-1 and MCF-7/Adr human mammary carcinoma xenografts. Mice were obtained from Taconic Laboratory Animals and Service (Germantown, N.Y.: outbred, Swiss background).

MCF-7 = experiment: SRB cytotoxicity, MCF-7; format: cell-based, human; details: Table 1C; SRB, 72 h; read-out: IC50
How it was run: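 Monolayer MCF-7 cultures exposed to six to seven drug concentrations in duplicate, then fixed with trichloroacetic acid and stained 30 min with 0.4% sulforhodamine B. Bound dye extracted with unbuffered Tris base, absorbance read at 570 nm; values derived by median-effect plot analysis.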

[3] = 0.3 mg/kg i.p. Q2Dx5 from day 7, day 11
[4] = 0.3 mg/kg i.p. Q2Dx5 from day 7, day 13
[5] = 0.3 mg/kg i.p. Q2Dx5 from day 7, day 15
[6] = 0.3 mg/kg i.p. Q2Dx5 from day 7, day 17
[7] = 0.6 mg/kg i.p. Q2Dx5 from day 7, day 11
[8] = 0.6 mg/kg i.p. Q2Dx5 from day 7, day 13
[9] = 0.6 mg/kg i.p. Q2Dx5 from day 7, day 15
[10] = 0.6 mg/kg i.p. Q2Dx5 from day 7, day 17
[11] = 0.6 mg/kg i.p. Q2Dx5 from day 9
[12] = 0.6 mg/kg i.p. Q2Dx5 from day 9, day 13
[13] = 0.6 mg/kg i.p. Q2Dx5 from day 9, day 15
[14] = 0.6 mg/kg i.p. Q2Dx5 from day 9, day 17
[15] = 0.6 mg/kg i.p. Q2Dx5 from day 9, day 19
[16] = high doses: dEpoB 25, EpoB 0.6, Taxol 10, Vinblastine 0.4 mg/kg i.p. Q2D from day 7
[17] = low doses: dEpoB 15, EpoB 0.3, Taxol 5, Vinblastine 0.2 mg/kg i.p. Q2D day 7-15

SMILES: C/C(=C\c1csc(C)n1)[C@@H]1C[C@@H]2O[C@]2(C)CCC[C@H](C)[C@H](O)[C@@H](C)C(=O)C(C)(C)[C@@H](O)CC(=O)O1 [Epothilone B, epothilone B]
- IC50 [1]: 4 nM
- fold resistance vs parent DC-3F (DC-3F/ADX; DC-3F/ADX cells, listed as EpoB): 28 fold
- folds of resistance (IC50 ratio vs parent cell line) (DC-3F/ADX; Table 1C, DC-3F/ADX vs DC-3F): (28x)
- IC50 (DC-3F/ADX; Table 1C, SRB, 72 h, read-out: IC50): 17 nM
- IC50 (murine leukemic P388/0): 0.29 nM
- Toxicity Death ([2]; 0.3 mg/kg i.p. Q2Dx5 from day 7): 0/7
- Average Body Weight Change [2, 3]: +0.5 g
- Average Tumor Size (T/C) [2, 3]: 1.00
- Average Body Weight Change [2, 4]: +0.4 g
- Average Tumor Size (T/C) [2, 4]: 0.71
- Average Body Weight Change [2, 5]: -0.3 g
- Average Tumor Size (T/C) [2, 5]: 0.71
- Average Body Weight Change [2, 6]: -1.2 g
- Average Tumor Size (T/C) [2, 6]: 0.84
- Toxicity Death ([2]; 0.6 mg/kg i.p. Q2Dx5 from day 7): 3/7)##
- Average Body Weight Change [2, 7]: -0.3 g
- Average Tumor Size (T/C) [2, 7]: 1.08
- Average Body Weight Change [2, 8]: -1.3 g
- Average Tumor Size (T/C) [2, 8]: 0.73
- Average Body Weight Change [2, 9]: -2.1 g
- Average Tumor Size (T/C) [2, 9]: 0.81
- Average Body Weight Change [2, 10]: -2.1 g
- Average Tumor Size (T/C) [2, 10]: 0.74
- Toxicity Death [2, 11]: 0/6
- Tumor Disapp. [2, 11]: 0/6
- Average Body Weight Change [2, 12]: -0.9 g
- Average Tumor Size (T/C) [2, 12]: 0.67
- Average Body Weight Change [2, 13]: 0.5 g
- Average Tumor Size (T/C) [2, 13]: 0.63
- Average Body Weight Change [2, 14]: -3.3 g
- Average Tumor Size (T/C) [2, 14]: 0.61
- Average Body Weight Change [2, 15]: -3.4 g
- Average Tumor Size (T/C) [2, 15]: 0.51
- average body weight decrease ([2]; EpoB 0.3 mg/kg i.p. days 7-15): over 1 g
- average body weight decrease ([2]; EpoB 0.6 mg/kg i.p. days 7-15): > 2 g
- mice died of toxicity ([2]; EpoB 0.6 mg/kg i.p. days 7-15): three out of seven
- Therapeutic effect Rank Order ([2]; MX-1, i.p., comparison with Camptothecin, VBL, EpoB (order wraps over rows r7-r8)): Taxol ® > VBL, EpoB
- Average Body Weight (change), Day 11 [2, 16]: -0.3 g
- Average Body Weight (change), Day 13 [2, 16]: -1.3 g
- Average Body Weight (change), Day 15 [2, 16]: -2.1 g
- Average Body Weight Change, Day 17 [2, 16]: -2.1 g
- Average Tumor Volume (T/C), Day 11 [2, 16]: 1.08 T/C
- Average Tumor Volume (T/C), Day 13 [2, 16]: 0.73 T/C
- Average Tumor Volume (T/C), Day 15 [2, 16]: 0.81 T/C
- Average Tumor Volume (T/C), Day 17 [2, 16]: 0.74 T/C
- Note: died (mice died/total) [2, 16]: 3/7 died
- Average Body Weight, Day 7 [2, 16]: 27.4 g
- Average Body Weight, Day 7 [2, 17]: 26.9 g
- Average Body Weight (change), Day 11 [2, 17]: +0.5 g
- Average Body Weight (change), Day 13 [2, 17]: +0.4 g
- Average Body Weight (change), Day 15 [2, 17]: -0.3 g
- Average Body Weight Change, Day 17 [2, 17]: -1.2 g
- Average Tumor Volume (T/C), Day 11 [2, 17]: 1.00 T/C
- Average Tumor Volume (T/C), Day 13 [2, 17]: 0.71 T/C
- Average Tumor Volume (T/C), Day 15 [2, 17]: 0.71 T/C
- Average Tumor Volume (T/C), Day 17 [2, 17]: 0.84 T/C
- Note: died (mice died/total) [2, 17]: 0/7 died
- IC50 (MCF-7): 0.5 nM
